Source: US8426175B2, “Method for the production of a fermentation product from a pretreated lignocellulosic feedstock” (Iogen Energy Corporation, priority 2007, dated 2013)
Where two headings read alike, the source gives them in different places.

Assays:
[1] = system: bacteria in contaminated yeast slurry; assay: Bacterial enumeration on TSA + cycloheximide plates after ClO2 treatment of contaminated yeast slurry; format: cell-based
Experimental: (§2) The yeast was concentrated by centrifugation (4 min, 4000 rpm) and resuspended in the original, contaminated supernatant to 20 g/L, 200 g/L or 300 g/L. Contamination was verified microscopically. The three slurries produced were cooled in an ice-water bath treated with either ClO2 at 0, 10, 50, 250, 500, 750 and 1000 ppm, serially diluted and plated on YM agar (3.0 g/L yeast extract, 3.0 g/L malt extract, 5 g/L peptone, 10 g/L glucose, 20 g/L agar)+chloramphenicol (34 μg/mL) plates for yeast and TSA (15 g/L pancreatic casein digest, 5 g/L enzymatic soy meal digest, 5 g/L NaCl, 15 g/L agar)+cycloheximide (0.05 μg/mL) plates for bacterial enumeration. Plates were incubated overnight at 30° C. and 37° C. for yeast and bacteria, respectively. Plates were counted the next day and bacterial colonies were verified microscopically.

[2] = system: contaminated recombinant Saccharomyces cultures; assay: Batch fermentation of xylose to ethanol inoculated with chlorine dioxide-treated, recycled yeast slurry; format: cell-based
Experimental: Saccharomyces cells from a frozen glycerol stock were used to inoculate 4 L of Sc Inoculation Medium (pH 6). The inoculum was grown with shaking at 160 rpm for 24 h at 30° C. The cells were harvested by centrifugation (4000 rpm for 5 min) and the entire cell pellet was resuspended in about 50 mL of the supernatant and this was used to inoculate 20 L of Sc Propagation Medium (pH 5.0). A fed-batch fermentation was run for 4 days with mild aeration of 56 slpm and 500 rpm agitation by mechanical stirring. The pH was maintained at 5.0 and the temperature was maintained at 30° C. for the first two days followed by 28° C. for the last two days. A 60 g/L glucose solution was fed to the vessel at a rate of 83.3 mL/h. The culture was sampled three times daily and the samples analyzed for cell growth, xylose and glucose. At the end of the fermentation, the entire broth was harvested and the cells concentrated by centrifugation (4000 rpm for 5 min in multiple 4 L Nalgene bottles). The cell pellets were resuspended to a concentration of 22.5 g cell mass/L. This was used to inoculate 10 L of Sc Fermentation Medium. Batch fermentation was run for 2-3 days with 1 slpm aeration, 250 rpm mechanical agitation. The pH was maintained at 6.0 and the temperature maintained at 28-30° C. The culture was sampled three times daily and the samples analyzed for cell growth, xylose glucose and ethanol.
(§1) Xylose and glucose concentrations of each sample were measured as follows: 2 mL of the broth were centrifuged at 14,000 rpm for 3 min to remove cells and the supernatant filtered through a 0.2 μm syringe filter. 10× dilutions of the supernatant were prepared in 5 mM sulfuric acid solution. Dilutions were analyzed via HPLC using an Agilent 1100 Series HPLC stem equipped with an 1100 Series Autosampler and Pumping System and Chemstation control software. A Varian MetaCarb 87H column maintained at 50° C. was used for separation. The eluant was a 5 mM aqueous sulfuric acid solution with a flow rate of 0.600 mL/min. Glucose, ethanol, xylose and xylitol were quantified using an Agilent 1100 Series Refractive Index Detector. Acetic acid and lactic acid were measured using an Agilent 1200 Series Variable Wavelength Detector.
[…] The yeast slurry was treated with chlorine dioxide at 50 ppm, 300 ppm and 500 ppm. The yeast slurry was used to re-inoculate fermentors containing 10 L of Sc Fermentation Medium run in batch mode at a starting yeast concentration targeted at 22.5 g/L yeast, as described in Example 2a. The culture was sampled three times daily and the samples analyzed for xylose, lactic acid and ethanol as described in Example 2a.

[3] = system: bacterially contaminated Candida tropicalis culture; assay: Batch fermentation of xylose to xylitol inoculated with chlorine dioxide-treated, recycled yeast slurry; format: cell-based; conditions: yeast slurry treated with 100 ppm at room temperature (FIG. 5)
Experimental: as §1
C. tropicalis cells from a frozen glycerol stock used to inoculate 2 L of Ct Inoculation Medium. The inoculum was grown with shaking at 160 rpm for 24 h at 30° C. The cells were harvested by centrifugation and the entire cell pellet was used to inoculate 2 L of Ct Xylose Medium. This culture was grown with shaking at 160 rpm for 24 h at 30° C. and the broth was used to inoculate 10 L of Ct Fermentation Medium. […] The culture was sampled three times daily and the samples analyzed for cell growth, xylose and xylitol as described in Example 2a. […]

Saccharomyces yeast = conditions: for impact on the viability of the yeast: 500 ppm or higher
Experimental: as §2

Lactobacillus strains = conditions: cited from earlier work
[4] = 200 g/L yeast slurry treated at 300 ppm (FIG. 3B)
[5] = 300 g/L yeast slurry treated at 500 ppm (FIG. 3C)

## [O][Cl+][O-] [chlorine dioxide]
[1]; 20 g/L yeast cell suspension
  chlorine dioxide dosage that effectively suppresses bacterial growth: ≥ 250 ppm
[1]; 200 g/L yeast suspension
  chlorine dioxide dosage required for effective bacterial decontamination: ≥ 500 ppm
[1]; 300 g/L yeast suspension
  chlorine dioxide dosage required for effective bacterial decontamination: ≥ 500 ppm
[2]; [4]
  ethanol product produced versus culture from slurry treated with 50 ppm: significantly more
  unwanted lactic acid byproduct produced versus culture from slurry treated with 50 ppm: less
[2]; [5]
  ethanol product produced versus culture from slurry treated with 50 ppm: significantly more
  unwanted lactic acid byproduct produced versus culture from slurry treated with 50 ppm: less
[2]; cells treated with the higher chlorine dioxide dosages (300, 500 ppm) vs 50 ppm
  rate of xylose consumption: significantly faster
[3]
  xylitol fermentation product produced versus culture inoculated with the untreated slurry: produced more
Saccharomyces yeast; 20 g/L yeast cell suspension, 250 ppm or higher
  impact on yeast viability: little to no impact
Saccharomyces yeast; 200 g/L yeast suspension
  impact on the viability of the yeast: little or no impact
Saccharomyces yeast; 300 g/L yeast suspension
  impact on the viability of the yeast: little or no impact

## OO [hydrogen peroxide]
Lactobacillus strains; one of the Lactobacillus species tested
  reducing the viability of Lactobacillus: effective

## O=S(O)O [sulfite]
Lactobacillus strains; treatment of yeast cells concentrated by filtration
  susceptibility of bacterial contaminants (two Lactobacillus strains): susceptible to sulfite only in the presence of oxygen
